Results taken from ChEMBL document CHEMBL5356974, “Development of MPS1 Inhibitors: Recent Advances and Perspectives” (J Med Chem, 2023).

Legend:
[1] = target: T1, Dual specificity protein kinase TTK (Homo sapiens, UniProt P33981); assay: Inhibition of full-length MPS1 (unknown origin) using fluorescein-labeled MBP-derived peptide as substrate preincubated for 1 hr followed by substrate addition measured after 2 hrs in presence of ATP by FP assay
T1 sequence (P33981 whole entry): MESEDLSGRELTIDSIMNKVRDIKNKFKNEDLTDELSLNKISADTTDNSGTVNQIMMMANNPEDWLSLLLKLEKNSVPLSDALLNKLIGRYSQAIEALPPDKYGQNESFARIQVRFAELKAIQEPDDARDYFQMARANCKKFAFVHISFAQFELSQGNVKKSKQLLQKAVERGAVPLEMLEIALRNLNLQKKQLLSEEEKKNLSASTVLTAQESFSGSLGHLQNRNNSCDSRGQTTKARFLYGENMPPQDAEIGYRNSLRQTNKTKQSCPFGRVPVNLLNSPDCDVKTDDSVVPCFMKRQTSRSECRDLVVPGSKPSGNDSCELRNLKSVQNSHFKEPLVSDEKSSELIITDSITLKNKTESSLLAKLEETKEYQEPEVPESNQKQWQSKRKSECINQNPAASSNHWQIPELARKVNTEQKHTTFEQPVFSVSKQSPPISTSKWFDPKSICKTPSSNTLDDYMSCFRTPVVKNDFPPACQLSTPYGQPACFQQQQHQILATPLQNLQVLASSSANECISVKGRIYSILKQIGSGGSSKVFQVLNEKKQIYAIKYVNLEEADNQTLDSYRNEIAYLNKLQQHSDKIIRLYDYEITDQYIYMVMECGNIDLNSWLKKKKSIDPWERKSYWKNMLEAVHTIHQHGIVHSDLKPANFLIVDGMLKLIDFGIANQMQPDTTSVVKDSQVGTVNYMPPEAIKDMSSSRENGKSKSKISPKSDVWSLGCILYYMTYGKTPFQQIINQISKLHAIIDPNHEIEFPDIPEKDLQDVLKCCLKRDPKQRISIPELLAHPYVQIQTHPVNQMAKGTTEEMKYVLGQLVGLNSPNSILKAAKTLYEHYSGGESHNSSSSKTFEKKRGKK

[2] = target: T2, Dual specificity protein kinase TTK (Homo sapiens) (UniProt P33981); conditions: dose 100.0 nM
T2 sequence (whole entry): T1 sequence (P33981 whole entry)

[3] = target: T3, Serine/threonine-protein kinase NLK (Homo sapiens) (UniProt Q9UBE8); assay: Inhibition of NLK (unknown origin) relative to control; conditions: concentration not given here
T3 sequence (whole entry): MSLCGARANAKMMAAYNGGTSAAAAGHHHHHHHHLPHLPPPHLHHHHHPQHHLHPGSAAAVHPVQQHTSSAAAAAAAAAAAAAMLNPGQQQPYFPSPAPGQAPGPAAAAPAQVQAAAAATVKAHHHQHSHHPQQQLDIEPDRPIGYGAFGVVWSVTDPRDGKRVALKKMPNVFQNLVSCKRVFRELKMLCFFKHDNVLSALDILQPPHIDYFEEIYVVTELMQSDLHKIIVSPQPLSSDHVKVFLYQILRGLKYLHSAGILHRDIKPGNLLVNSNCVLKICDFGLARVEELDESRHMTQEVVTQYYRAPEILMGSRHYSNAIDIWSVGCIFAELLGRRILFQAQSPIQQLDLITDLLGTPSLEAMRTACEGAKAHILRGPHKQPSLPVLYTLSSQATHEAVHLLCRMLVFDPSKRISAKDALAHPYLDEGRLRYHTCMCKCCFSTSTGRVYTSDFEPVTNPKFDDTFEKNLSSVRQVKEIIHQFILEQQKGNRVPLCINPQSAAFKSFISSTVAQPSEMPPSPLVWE

[4] = target: Mitogen-activated protein kinase 10 (Homo sapiens) (UniProt P53779); assay: Inhibition of JNK3 (unknown origin) relative to control; conditions: concentration not given here
Chain of Mitogen-activated protein kinase 10 (Homo sapiens) (P53779 whole entry): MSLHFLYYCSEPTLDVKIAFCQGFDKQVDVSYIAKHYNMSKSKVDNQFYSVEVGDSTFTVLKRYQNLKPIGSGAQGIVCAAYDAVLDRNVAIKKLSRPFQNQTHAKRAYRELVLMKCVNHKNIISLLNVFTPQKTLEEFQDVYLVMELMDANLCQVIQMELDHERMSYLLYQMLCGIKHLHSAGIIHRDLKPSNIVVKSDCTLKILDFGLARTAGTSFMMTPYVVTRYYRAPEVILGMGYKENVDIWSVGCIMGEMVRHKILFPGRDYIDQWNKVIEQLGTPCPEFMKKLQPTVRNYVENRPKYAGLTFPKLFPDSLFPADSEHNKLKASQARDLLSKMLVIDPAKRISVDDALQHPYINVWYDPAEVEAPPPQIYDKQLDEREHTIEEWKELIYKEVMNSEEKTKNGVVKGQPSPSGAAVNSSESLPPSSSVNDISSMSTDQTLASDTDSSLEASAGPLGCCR

[5] = target: Mitogen-activated protein kinase 9 (Homo sapiens) (UniProt P45984); assay: Inhibition of JNK2 (unknown origin) relative to control; conditions: concentration not given here
Chain of Mitogen-activated protein kinase 9 (Homo sapiens) (P45984 whole entry, looked up): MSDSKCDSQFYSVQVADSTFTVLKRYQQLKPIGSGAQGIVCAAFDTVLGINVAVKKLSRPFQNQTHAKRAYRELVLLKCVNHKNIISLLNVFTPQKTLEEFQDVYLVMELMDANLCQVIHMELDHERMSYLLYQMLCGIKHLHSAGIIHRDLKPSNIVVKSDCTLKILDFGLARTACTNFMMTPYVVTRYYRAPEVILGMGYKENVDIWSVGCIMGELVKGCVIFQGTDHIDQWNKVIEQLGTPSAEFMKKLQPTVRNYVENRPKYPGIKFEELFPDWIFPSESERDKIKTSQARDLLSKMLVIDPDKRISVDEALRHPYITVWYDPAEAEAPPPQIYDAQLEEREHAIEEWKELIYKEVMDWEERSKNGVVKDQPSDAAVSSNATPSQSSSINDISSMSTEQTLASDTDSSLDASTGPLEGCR

IC50 [1] [nM] | inhibition [2] [%] | inhibition [3] [%] | inhibition [4] [%] | inhibition [5] [%] | SMILES
7.6 |  |  |  |  | CN1CCC(c2ccc(Nc3ncc4c(n3)-n3ccc(C(N)=O)c3CC4)cc2)CC1
 | > 90 |  |  |  | CCc1nn(CCOCCOC)c(CC)c1NC(=O)c1ccn2c1CCc1cnc(Nc3ccc(N4CCN(C)CC4)cc3OC)nc1-2
1.2 | > 90 |  |  |  | CCc1n[nH]c(CC)c1NC(=O)c1ccn2c1CCc1cnc(Nc3ccc(N4CCN(C)CC4)cc3OC)nc1-2
 |  | 80 | 80 | 80 | Cn1cc(-c2cc3cnc(Nc4ccc(-c5cncn5C)cc4Cl)cc3n2C(=O)OC(C)(C)C)cn1
